Publication PMC4208661, “SGLT2 inhibitors act from the extracellular surface of the cell membrane” (Physiological Reports, 2014)
Read-outs that look alike come from different tables or passages of the source. Values belong to the compound of their own block, whether it stands above or below them.

Experiments:
hSGLT2 [1] = molecular target: T1, hSGLT2 (Homo sapiens, UniProt P31639); set-up: method as in Koga et al. [2013]; conditions: ref Koga et al. [2013], cited from earlier work
T1 sequence (P31639 1-672): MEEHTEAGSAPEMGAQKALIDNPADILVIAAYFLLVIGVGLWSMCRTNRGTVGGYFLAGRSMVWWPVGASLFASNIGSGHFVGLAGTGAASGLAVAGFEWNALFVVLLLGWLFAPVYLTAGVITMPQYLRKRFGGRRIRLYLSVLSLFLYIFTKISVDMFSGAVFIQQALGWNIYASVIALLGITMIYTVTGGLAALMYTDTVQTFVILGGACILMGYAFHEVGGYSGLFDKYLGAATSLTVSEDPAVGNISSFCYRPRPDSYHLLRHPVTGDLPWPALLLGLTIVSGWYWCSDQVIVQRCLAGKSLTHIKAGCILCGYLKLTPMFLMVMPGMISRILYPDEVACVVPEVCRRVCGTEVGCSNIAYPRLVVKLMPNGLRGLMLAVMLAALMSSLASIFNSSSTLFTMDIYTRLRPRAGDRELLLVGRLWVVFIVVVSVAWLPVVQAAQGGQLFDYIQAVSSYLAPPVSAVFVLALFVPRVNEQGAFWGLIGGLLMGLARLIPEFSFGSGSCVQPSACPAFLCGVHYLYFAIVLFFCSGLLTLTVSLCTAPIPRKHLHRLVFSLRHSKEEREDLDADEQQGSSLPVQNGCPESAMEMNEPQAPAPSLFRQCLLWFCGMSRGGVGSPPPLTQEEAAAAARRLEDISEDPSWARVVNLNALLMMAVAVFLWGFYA

[2] = set-up: method as in Koga et al. [2013]; conditions: ref Koga et al. [2013]; cited from earlier work
hSGLT1 [3] = molecular target: T2, hSGLT1 (Homo sapiens, UniProt P13866); conditions: 300 nmol/L TA-3404, 50 μmol/L α-MDG, HEK-293T, 37°C
T2 sequence (P13866 1-664): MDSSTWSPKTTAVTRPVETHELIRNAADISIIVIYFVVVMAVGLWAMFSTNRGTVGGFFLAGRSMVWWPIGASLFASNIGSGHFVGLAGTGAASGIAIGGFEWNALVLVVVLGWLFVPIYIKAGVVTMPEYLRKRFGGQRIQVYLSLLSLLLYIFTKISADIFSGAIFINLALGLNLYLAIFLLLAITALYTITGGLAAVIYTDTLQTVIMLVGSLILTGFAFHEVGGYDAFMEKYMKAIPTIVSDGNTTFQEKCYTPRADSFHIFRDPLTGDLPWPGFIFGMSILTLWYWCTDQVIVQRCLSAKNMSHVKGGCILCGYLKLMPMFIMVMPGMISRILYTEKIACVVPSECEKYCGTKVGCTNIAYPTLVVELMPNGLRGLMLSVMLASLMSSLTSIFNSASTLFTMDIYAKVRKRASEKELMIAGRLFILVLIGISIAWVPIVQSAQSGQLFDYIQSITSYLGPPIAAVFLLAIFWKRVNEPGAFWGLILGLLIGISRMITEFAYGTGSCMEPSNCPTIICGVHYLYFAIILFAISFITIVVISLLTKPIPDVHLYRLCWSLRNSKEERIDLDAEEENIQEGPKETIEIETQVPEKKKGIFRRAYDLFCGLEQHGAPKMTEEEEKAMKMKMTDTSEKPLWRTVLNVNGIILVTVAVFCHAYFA
Protocol: In brief, cells were incubated for 30 min in 50 μmol/L [^14C]‐α‐Methyl‐D‐glucopyranoside (GE HealthCare Life Sciences, Piscataway, NJ), a specific substrate for SGLTs, and washed in cold Choline buffer three times. The cells were solubilized and a sample was assayed using scintillation counting. Uptake was normalized to total cellular protein. For each tested condition, the sample size was n = 3–4 wells and each experiment was repeated at least twice.

hSGLT1 [4] = molecular target: T2, hSGLT1; experiment: Whole-cell patch clamp, glucose-induced current, extracellular inhibitor, HEK-293T cells expressing hSGLT1
Protocol: In brief, 2 days after transfection cells were plated on 12‐mm poly‐L‐lysine‐coated glass coverslips and selected on the basis of fluorescence intensity using a Nikon diaphot epifluorescence microscope (Nikon, Tokyo, Japan). During the experiment cells were kept at the holding potential Vh = −60 mV. […] Currents were filtered at 2 kHz and digitized at 1 kHz.
Glucose currents (IGlu) were obtained by subtracting the baseline current recorded in Na^+ buffer to the total current measured in Na^+ buffer + glucose: [drawing 1]
The inhibition constant (IC50) was determined by measuring the sugar‐dependent steady‐state current or radiotracer uptake as a function of external inhibitor concentration.
The D‐glucose‐coupled current recovery follows an exponential time course with time constant 1/koff and half‐time for recovery (t1/2,off) related to the off rate: [drawing 3]
The ON rate (kon) is calculated from the empirically measured Ki values and koff values: [drawing 4]
To calculate the dissociation constant (koff) we measured the recovery time of SGLT glucose‐induced current when the inhibitor is rapidly removed from the extracellular solution.

hSGLT2 [5] = molecular target: T1, hSGLT2; experiment: [14C]-αMDG uptake in HEK-293T cells expressing hSGLT2; assay type: cell-based; set-up: transfected with 1 μg of the vector containing the hSGLT2 or hSGLT1 coding region; expressed in transfected cells; host or cells: HEK-293T
Protocol: Uptake was normalized to total cellular protein.
We decided to use two different approaches due to the fact that hSGLT2 has low expression, yielding small glucose‐induced currents. For radiotracer uptake experiments, tracer entry in the cell is measured over the period of 30 min leading to a higher sensitivity of the method.

hSGLT2 [6] = molecular target: T1, hSGLT2; experiment: Whole-cell patch clamp, glucose-induced current, extracellular inhibitor, HEK-293T cells expressing hSGLT2; assay type: cell-based; set-up: transfected with 1 μg of the vector containing the hSGLT2 or hSGLT1 coding region; expressed in transfected cells; host or cells: HEK-293T
hSGLT2 [7] = molecular target: T1, hSGLT2; experiment: Whole-cell patch clamp, inward glucose current with inhibitor in the intracellular (pipette) solution, hSGLT2; assay type: cell-based; set-up: transfected with 1 μg of the vector containing the hSGLT2 or hSGLT1 coding region; expressed in transfected cells; host or cells: HEK-293T
Excerpt: (§1) The intracellular NaCl concentration was maintained at either 5 or 150 mmol/L using CsCl to replace NaCl (Fig. 5A and B).

hSGLT1 [8] = molecular target: T2, hSGLT1; experiment: Whole-cell patch clamp, inward glucose current with inhibitor in the intracellular (pipette) solution, hSGLT1; assay type: cell-based; set-up: transfected with 1 μg of the vector containing the hSGLT2 or hSGLT1 coding region; expressed in transfected cells; host or cells: HEK-293T
Excerpt: as §1

[9] = tested on: renal glucose reabsorption; conditions: cited from earlier work
hSGLT2 [10] = molecular target: T1, hSGLT2; set-up: transfected with 1 μg of the vector containing the hSGLT2 or hSGLT1 coding region; expressed in transfected cells; host or cells: HEK-293T; conditions: ref Hummel et al. [2011], cited from earlier work
hSGLT2 over hSGLT1 = tested on: hSGLT2 over hSGLT1; set-up: method as in Nomura et al. [2010]; conditions: from IC50; ref Nomura et al. [2010]; cited from earlier work
[11] = after 24 h, single clinical oral dose; ref Hummel et al. [2012]; cited from earlier work
[12] = physiological conditions, HEK293T cells
[13] = ref Chasis et al. [1933], Silverman [1974]

inhibition of hSGLT1 uptake (hSGLT1 [3]): 10% | IC50 (hSGLT1 [4]): 300 ± 61 nM | Ki (hSGLT1 [4]): 150 nM | half-time of recovery of hSGLT1 current (t1/2,off) (hSGLT1 [4]; after removal of inhibitor, n = 5): 5.4 ± 0.4 s | koff, hSGLT1 (hSGLT1 [4]; from half-time of current recovery): 0.2 per sec | inhibition of hSGLT2 sugar uptake (hSGLT2 [5]; 2 nmol/L TA-3404, 50 μmol/L α-MDG, HEK-293T, 37°C): 50% | IC50 (hSGLT2 [5]; 50 μmol/L [14C]-αMDG, 1-500 nmol/L extracellular TA-3404, HEK-293T, read-out: IC50, [14C]-αMDG uptake, hSGLT2): 3.9 ± 2.2 nM | affinity of hSGLT2 higher than for hSGLT1 (hSGLT2 [5]; HEK-293T): about 75 fold | IC50 (hSGLT2 [5]; as stated in the abstract, read-out: IC50, extracellular inhibition of glucose inward SGLT2 transport): 2 nM | Ki (hSGLT2 [5]; from IC50 (IC50 is twice the Ki), extracellular): ~2 nM | inhibition of glucose-induced inward current, hSGLT2 (hSGLT2 [6]; 300 nmol/L extracellular TA-3404, 100 mmol/L glucose, -60 mV, 37°C): completely inhibited | half-time of recovery of hSGLT2 current (t1/2,off) (hSGLT2 [6]; after removal of inhibitor, reversible ~50% component, n = 3): 17 ± 0.5 s | kon, hSGLT2 (hSGLT2 [6]; calculated from Ki and koff): 1.4 × 10^6 mol/L per sec | recovery of hSGLT2 current after removing the inhibitor (hSGLT2 [6]; washout, no further recovery over 5 min): ~ 50% | inhibition of inward hSGLT2 Na+/glucose current (hSGLT2 [7]; 200 nmol/L TA-3404 intracellular, 5 mmol/L intracellular Na+, 100 mmol/L glucose, -60 mV): did not inhibit | inhibition of inward hSGLT2 glucose current (hSGLT2 [7]; 200 nmol/L TA-3404 intracellular, 150 mmol/L intracellular Na+): no significant inhibition | intracellular affinity of hSGLT2 lower than the extracellular affinity (hSGLT2 [7]; intracellular versus extracellular): at least 100 | inhibition of SGLT2 from the intracellular compartment (hSGLT2 [7]; low (5 mmol/L) and high (150 mmol/L) intracellular NaCl): ineffective | inhibition of Na+/glucose currents generated by hSGLT2, inhibitor in the cytoplasm (hSGLT2 [7]; [12]): does not inhibit | effect on inward hSGLT1 Na+/glucose current (hSGLT1 [8]; 200 nmol/L TA-3404 intracellular, 5 mmol/L NaCl in the pipette, 10 mmol/L glucose): no effect | effect on hSGLT1 glucose-induced current (hSGLT1 [8]; 200 nmol/L TA-3404 intracellular, 150 mmol/L Na+ in the pipette): did not detect any significant effect | inhibition of Na+/glucose currents generated by hSGLT1, inhibitor in the cytoplasm (hSGLT1 [8]; [12]): does not inhibit
Compound: OC[C@H]1O[C@@H](c2ccc(Cl)c(Cc3ccc(-c4ccc(F)nc4)s3)c2)[C@H](O)[C@@H](O)[C@@H]1O [TA‐3404]
IC50 (hSGLT2 [1]; CHOK1 cells overexpressing hSGLT2, read-out: IC50, Na+-dependent 14C-α-MDG uptake, SGLT2): 2 nM | selectivity for SGLT2 vs. SGLT1 (hSGLT2 [1]; CHOK1 cells, ratio of IC50): ~ 350 fold | pharmacokinetic profiles [2]: favorable pharmacokinetic profiles | urine glucose excretion [2]: increased urine glucose excretion

Compound: O=C(CCc1ccc(O)cc1)c1c(O)cc(O)cc1O[C@@H]1O[C@H](CO)[C@@H](O)[C@H](O)[C@H]1O [phlorizin]
glomerular filtration [9, 13]: freely filtered | glucose reabsorption [9, 13]: completely blocks glucose reabsorption | route of excretion ([9]; ref Silverman [1974]): mainly excreted into the urine | effect on sugar uptake by hSGLT2 (hSGLT2 [5]; 100 μmol/L phlorizin, 50 μmol/L α-MDG, HEK-293T): to the level observed in untransfected cells | Off rate, hSGLT2 (hSGLT2 [10]; phlorizin): 0.3 per sec | half-time of recovery of hSGLT2 current (t1/2,off) (hSGLT2 [10]): 24 s

Compound: Cc1ccc([C@@H]2O[C@H](CO)[C@@H](O)[C@H](O)[C@H]2O)cc1Cc1ccc(-c2ccc(F)cc2)s1 [Canagliflozin, canagliflozin]
selectivity for hSGLT2 over hSGLT1 (hSGLT2 over hSGLT1): 414 fold

Compound: CCOc1ccc(Cc2cc([C@@H]3O[C@H](CO)[C@@H](O)[C@H](O)[C@H]3O)ccc2Cl)cc1 [dapagliflozin]
free plasma concentration [11]: 25 nM | Off rate of binding to hSGLT2 (hSGLT2 [10]): very slow Off rate
